According to patent US20190093096A1, “COMOSAIN AND BROMELAINS AS IMMUNO-THERAPY IN THE TREATING AND/OR PREVENTING VARIOUS TYPES OF CANCER IN A MAMMAL” (priority 2017, published 2019):

What was measured:
[1] = Blood analysis on rabbits fed high cholesterol diets; type: in vivo, New Zealand white rabbits; details: for decrease of plasma total cholesterol as compared to control group / decrease of plasma triglycerides as compared to control group: 1% cholesterol diet plus 0.15% flavonoid
Method: The rabbits were fed for 8 weeks with free access to specific high cholesterol diets and water. Body weight was recorded every 7 days and the records were analyzed. […] (Rutin, quercetin and kaempherol were purchased from Aldrich-Sigma Co. St. Louis, Mo. USA) (Vitexin was purchased from Indofine Co. Sumerville, N.J. USA)
(Step B) After 8 weeks of breeding, the rabbits were anesthetized with injection of ketamine 75 mg/kg in the femoral muscle and sacrificed. Blood samples were collected from the heart of each rabbit to determine the blood analysis consisting of; complete blood count (CBC), Chemistry-7 and 24, (including Liver and renal function tests), lipid profiles, (including Total cholesterol, HDL, LDL, VLDL and triglycerides), coagulation factors consisting of; Prothrombin time (PT), Partial thromboplastin time (PTT), and immuno-globulin-E (an anti-allergenic factor).
The blood samples collected from rabbits of the six dietary groups were allowed to stand for 2 hours, then centrifuged at 4000 rpm for 10 minutes. (Megafuge, Baxter-Heraeus instrument Co. N.J., USA) The supernatants were separated and stored in a deep freeze before analysis. The chemistry analysis was carried out by blood chemistry analyzer (Cobras-Integra-700, Roche Diagnostic Lab. Indiana, USA) to determine the changes in total cholesterol, HDL, LDL, triglycerides, liver function tests (such as SGOT, SGPT, G-GPT) and coagulation factors (PT, PTT) (Bayer-MLA-Electra-900 Automatic coagulation timer). The results were tested by using student t-test and Microsoft excel-7.0 program. The results are depicted in Table III. • 3.

[2] = Analysis for fatty streak deposition in thoracic aorta; type: in vivo, New Zealand white rabbits; details: control group: thick layer; 1% cholesterol diet, 8 weeks
[3] = Fatty degeneration in the liver of the rabbits; type: in vivo, New Zealand white rabbits; details: 1% cholesterol diet, 8 weeks
Excerpt: According to the report of Fogt F. and Nanji A., (Toxicology and Applied Pharmacology; 136, pp 87-93, 1996) and Keegan A. et al., (Journal of Hepatology; 23, pp 591-600, 1995). Fatty degeneration of liver can be classified into four grades based upon the abnormal fat containing cells around the central vein of liver acinus, for example: grade 1 (0-25%), grade 2 (26-50%), grade 3 (51-75%), grade4 (76-100%). The effects of rutin, quercetin, kaempherol and vitexin on liver tissue on the rabbits from Example 4 Step B were examined.

[4] = Toxicity of rutin, quercetin, kaempherol and vitexin in mice by oral administration; details: for adverse effects on hematopeutic, renal, hepatic systems / toxicity: oral, mouse, rutin 1500, quercetin 1250, kaempherol 1000, vitexin 500 mg/kg; for body weight during observation / pathological abnormality of internal organs, visually or microscopically / survival at day 180: single oral dose; for body weight during observation: 180 days of observation; for pathological abnormality of internal organs, visually or microscopically: sacrifice on day 181; for survival at day 180: rutin 1500, kaempherol 1000, vitexin 500 mg/kg
breast cancer cell line = assay: Growth inhibition of breast cancer cell line by Quercetin and Naringenin in vitro; type: cell-based
lung cancer cells = assay: Inhibition of tumor cell growth of lung cancer by pepsin and trypsin in vitro; type: cell-based; details: 72 hours at 37 C, 10% CO2, Coulter counter
Excerpt: The graph represents the two experiments with Pepsin and Trypsin.

In the case of `O=c1c(O)c(-c2ccc(O)cc2)oc2cc(O)cc(O)c12` [Kaempherol, 3,5,7,4′ tetra-hydroxy-flavone], the “liver function and WBC” value ([1]; rabbit, in vivo) is reported as “not affected”, the “decrease of plasma total cholesterol as compared to control group” value (“decrease of plasma total cholesterol” below) ([1]; rabbits, 8 weeks) is reported as 30% and the “decrease of plasma triglycerides as compared to control group” value (“decrease of plasma triglycerides” below) ([1]; rabbits, 8 weeks) is reported as 22%. The “reducing plasma total cholesterol and triglycerides, compared with Simvastatin” value ([1]; rabbits, 8 weeks) was “more effective”, the “macrophage lipid cell complex in the aorta walls (microscopic pictures)” value (“macrophage lipid cell complex” below) [2] was “no or a very thin layer of macrophage lipid cell complex” and the “microscopic features of the liver (fat containing cells)” value (“microscopic features of the liver” for short) [3] was “almost all of the liver cells are normal without containing fat particles”. The “adverse effects on hematopeutic, renal, hepatic systems” value (“adverse effects on hematopeutic, renal” below) [4] was “no adverse effects”, the toxicity [4] was “no toxicity” and the “body weight during observation” value [4] was “no body weight loss”. The “pathological abnormality of internal organs, visually or microscopically” value (from here on “pathological abnormality”) [4] was “did not develop any pathological abnormality” and the “survival at day 180” value [4] was “All mice were alive”.

With `O=C1C[C@@H](c2ccc(O)cc2)Oc2cc(O)cc(O)c21` [Naringenin] the “growth of breast cancer cell line” value (breast cancer cell line) was “Growth inhibition”.

With `O=c1c(O)c(-c2ccc(O)c(O)c2)oc2cc(O)cc(O)c12` [Quercetin, 3,5,7,3′,4′ penta-hydroxy flavone] the “growth of breast cancer cell line” value (breast cancer cell line) was “Growth inhibition”, the “liver function and WBC” value ([1]; rabbit, in vivo) was “not affected” and the “decrease of plasma total cholesterol” value ([1]; rabbits, 8 weeks) was 33%. For the same molecule, the “decrease of plasma triglycerides” value ([1]; rabbits, 8 weeks) was 47%, the “reducing plasma total cholesterol and triglycerides, compared with Simvastatin” value ([1]; rabbits, 8 weeks) was “more effective” and the “macrophage lipid cell complex” value [2] was “no or a very thin layer of macrophage lipid cell complex”. For the same molecule, the “microscopic features of the liver” value [3] was “almost all of the liver cells are normal without containing fat particles”, the “adverse effects on hematopeutic, renal” value [4] was “no adverse effects” and the “body weight during observation” value [4] was “no body weight loss”. For the same molecule, the “pathological abnormality” value [4] was “did not develop any pathological abnormality” and the “survival at day 180” value [4] was “All mice were alive”.

With `C[C@@H]1O[C@@H](OC[C@H]2O[C@@H](Oc3c(-c4ccc(O)c(O)c4)oc4cc(O)cc(O)c4c3=O)[C@H](O)[C@@H](O)[C@@H]2O)[C@H](O)[C@H](O)[C@H]1O` [Rutin, Quercetin-3-rutinoside] the “decrease of plasma total cholesterol” value ([1]; rabbits, 8 weeks) was 32%, the “decrease of plasma triglycerides” value ([1]; rabbits, 8 weeks) was 45% and the “liver function and WBC” value ([1]; rabbits, 8 weeks, unlike the Simvastatin group) was “not affected”. The “adverse effects on hematopeutic, renal” value [4] was “no adverse effects”, the toxicity [4] was “no toxicity” and the “body weight during observation” value [4] was “no body weight loss”. For the same molecule, the “pathological abnormality” value [4] was “did not develop any pathological abnormality” and the “survival at day 180” value [4] was “All mice were alive”.

For `O=c1cc(-c2ccc(O)cc2)oc2c(C3O[C@H](CO)[C@@H](O)[C@H](O)[C@H]3O)c(O)cc(O)c12` (stereo partly drawn) [Vitexin, 8-D-glucosyl-4′,5,7 trihydroxy-flavone], the “liver function and WBC” value ([1]; rabbit, in vivo) was “not affected”, the “decrease of plasma total cholesterol” value ([1]; rabbits, 8 weeks) was 30% and the “decrease of plasma triglycerides” value ([1]; rabbits, 8 weeks) was 17%. The “reducing plasma total cholesterol and triglycerides, compared with Simvastatin” value ([1]; rabbits, 8 weeks) was “more effective”, the “macrophage lipid cell complex” value [2] was “no or a very thin layer of macrophage lipid cell complex” and the “microscopic features of the liver” value [3] was “almost all of the liver cells are normal without containing fat particles”. The “adverse effects on hematopeutic, renal” value [4] was “no adverse effects”, the toxicity [4] was “no toxicity” and the “body weight during observation” value [4] was “no body weight loss”. For the same molecule, the “pathological abnormality” value [4] was “did not develop any pathological abnormality” and the “survival at day 180” value [4] was “All mice were alive”.

In the case of “pepsin: proteinase purchased from Sigma-Aldrich”, the “tumor cell growth of lung cancer” value (lung cancer cells) is reported as “Inhibition of tumor cell growth”.

B1: trypsin: proteinase purchased from Sigma-Aldrich (protein, UniProt P00760 24-246, looked up)
Serine protease 1: IVGGYTCGANTVPYQVSLNSGYHFCGGSLINSQWVVSAAHCYKSGIQVRLGEDNINVVEGNEQFISASKSIVHPSYNSNTLNNDIMLIKLKSAASLNSRVASISLPTSCASAGTQCLISGWGNTKSSGTSYPDVLKCLKAPILSDSSCKSAYPGQITSNMFCAGYLEGGKDSCQGDSGGPVVCSGKLQGIVSWGSGCAQKNKPGVYTKVCNYVSWIKQTIASN
In the case of B1, the “tumor cell growth of lung cancer” value (lung cancer cells) is reported as “Inhibition of tumor cell growth”.
